In patent US20230075856A1, “CYCLIC SULFAMIDE COMPOUNDS FOR TREATMENT OF HBV” (Assembly Biosciences, Inc., priority 2018, published 2023):
Read-outs that look alike come from different tables or passages of the source.

System: HBV viral load production from HepAD38 cells
Test: Viral production from HepAD38 cells: viral load in supernatant by qPCR of the HBV core sequence
Format: cell-based
Details: 5 days incubation, qPCR of supernatant HBV DNA vs DMSO control, read-out: viral load lowering EC50 (Activity)
Procedure, shortened: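 Viral load was measured by qPCR of the HBV core region in supernatant, quantified against DNA standards and compared with DMSO wells. Cells (50,000/well, tetracycline withdrawn, 2% FBS) received compound from 10 μM final for 5 days; EC50 from four-parameter nonlinear regression.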

[1] = Hepatitis B virus, HePAD38, 120 h

Structure (SMILES)	EC50 [1] [nM]	EC50 [nM]
CN1C(C(=O)Nc2ccc(F)c(Cl)c2)CC(C(=O)NC2CCN(c3ccccn3)CC2)NS1(=O)=O (single isomer, unassigned) [Compound 769-ISOMER-A, N3-(3-chloro-4-fluoro-phenyl)-2-methyl-1,1-dioxo-N5-[1-(2-pyridyl)-4-piperidyl]-1,2,6-thiadiazinane-3,5-dicarboxamide]	< 50	–
CN1C(C(=O)Nc2ccc(F)c(Cl)c2)CC(C(=O)NCc2ccc(S(N)(=O)=O)s2)NS1(=O)=O (centres unmarked) [Compound 682]	100 to 10000	–
CN1C(C(=O)Nc2ccc(F)c(Cl)c2)CC(C(=O)NC2CCN(c3ccnc(Cl)c3)CC2)NS1(=O)=O (centres unmarked) [Compound 1012]	< 50	–
CN1C(C(=O)Nc2ccc(F)c(Cl)c2)CC(C(=O)NC(c2ccccc2)c2ccccc2)NS1(=O)=O (single isomer, unassigned) [1014-ISOMER-A, N5-benzhydryl-N3-(3-Chloro-4-fluoro-phenyl)-2-methyl-1,1-dioxo-1,2,6-thiadiazinane-3,5-dicarboxamide]	< 50	–
CN1C(C(=O)Nc2ccc(F)c(Cl)c2)CC(C(=O)NC2CCN(c3ccnc(F)c3)CC2)NS1(=O)=O (centres unmarked) [Compound 1040]	< 50	–
Cc1ncc(CNC(=O)C2CC(C(=O)Nc3ccc(F)c(Cl)c3)N(C)S(=O)(=O)N2)s1 (single isomer, unassigned; isomer-a) [Compound 495-ISOMER-A, N3-(3-chloro-4-fluroo-phenyl)-2-methyl-N5-[(2-methylthiazol-5-yl)methyl]-1,1-dioxo-1,2,6-thiadiazinane-3,5-dicarboxamide]	–	100 to 10000
CN1C(C(=O)Nc2ccc(F)c(Cl)c2)CC(C(=O)NCc2cnc(-c3ccc(O)cc3Cl)s2)NS1(=O)=O (centres unmarked) [Compound 1028]	< 50	–
CN1C(C(=O)Nc2ccc(F)c(Cl)c2)CC(C(=O)NC(c2ccccc2)c2ccccc2)NS1(=O)=O (single isomer, unassigned) [1014-ISOMER-B, N5-benzhydryl-N3-(3-Chloro-4-fluoro-phenyl)-2-methyl-1,1-dioxo-1,2,6-thiadiazinane-3,5-dicarboxamide]	–	100 to 10000
COc1ccccc1-c1ncc(CNC(=O)C2CC(C(=O)Nc3ccc(F)c(Cl)c3)N(C)S(=O)(=O)N2)s1 (single isomer, unassigned) [Compound 987-ISOMER-A, N3-(3-chloro-4-fluoro-phenyl)-N5-[[2-(2-methoxyphenyl)thiazol-5-yl]methyl]-2-methyl-1,1-dioxo-1,2,6-thiadiazinane-3,5-dicarboxamide]	< 50	–
CN1C(C(=O)Nc2ccc(F)c(Cl)c2)CC(C(=O)NCc2cc(-c3ccccc3)on2)NS1(=O)=O (centres unmarked) [Compound 1149]	< 50	–
CN1C(C(=O)Nc2ccc(F)c(Cl)c2)CC(C(=O)NCc2cc(Br)no2)NS1(=O)=O (centres unmarked) [Compound 980]	100 to 10000	–
Cc1cn(-c2ccccc2)nc1CNC(=O)C1CC(C(=O)Nc2ccc(F)c(C#N)c2)N(C)S(=O)(=O)N1 (single isomer, unassigned) [1134-ISOMER-B, N3-(3-cyano-4-fluoro-phenyl)-2-methyl-N5-[(4-methyl-1-phenyl-pyrazol-3-yl)methyl]-1,1-dioxo-1,2,6-thiadiazinane-3,5-dicarboxamide]	–	< 50
CN1C(C(=O)Nc2ccc(F)c(Cl)c2)CC(C(=O)NCc2sc(-c3ccccc3F)nc2C(F)(F)F)NS1(=O)=O (centres unmarked) [Compound 1082]	< 50	–
Cc1c(CNC(=O)C2CC(C(=O)Nc3ccc(F)c(Cl)c3)N(C)S(=O)(=O)N2)cnn1C (centres unmarked) [Compound 740]	< 50	–
CN1C(C(=O)Nc2ccc(F)c(Cl)c2)CC(C(=O)NCc2cnc(Cl)s2)NS1(=O)=O (centres unmarked) [Compound 1199]	< 50	–
C[C@@H](NC(=O)C1CC(C(=O)Nc2ccc(F)c(Cl)c2)N(C)S(=O)(=O)N1)c1ccc(C(F)(F)F)cc1 (single isomer, unassigned) [493-R-ISOMER-B]	100 to 10000	–
CN1C(C(=O)Nc2ccc(F)c(Cl)c2)CC(C(=O)NCC2CCCCC2)NS1(=O)=O (single isomer, unassigned) [1160-ISOMER-B, N3-(3-chloro-4-fluoro-phenyl)-N5-(cyclohexylmethyl)-2-methyl-1,1-dioxo-1,2,6-thiadiazinane-3,5-dicarboxamide]	–	100 to 10000
